Results: patent publication US20130150317A1, “COMPOUNDS FOR THE TREATMENT OF RENAL CELL CARCINOMA” (Myrovlytis Technology Ventures Limited, priority 2010, published 2013)
“Also recorded” adds a separate entry of the source. Where a name gives a salt, the structure may show the parent alone. Read-outs that look alike come from different tables or passages of the source.

Columns and labels:
UOK257-FLCN^− cells = assay: SRB growth inhibition assay in UOK257-FLCN^− cells; format: cell-based, human; conditions: for GI50: SRB assay, 72 hours continuous exposure, mean ± SE (n), read-out: GI50 nM in UOK-FLCN^−; for GI50 Ratio of UOK-FLCN^+/UOK-FLCN^−: ratio>1 = more inhibitory to FLCN^− cells; for fold difference in the GI50 values between FLCN-null and FLCN-wild type UOK257 cells: GI50 higher in FLCN-wild type cells (FLCN-null more sensitive)
Description: (§1) Human renal carcinoma of BHD origin cells UOK-257 (UOK-FLCN^−) and FLCN transfected UOK-257 cells UOK-FLCN^+ (Yang et al Cancer Genet Cytogenet. 2008 Jan. 15; 180(2):100-9) were provided by Dr Marston Linehan and Dr. Laura S Schmidt (Urologic Oncology Branch, Centre for Cancer Research, National Cancer Institute, National Institutes of Health, Bethesda, Md. 20892, USA). UOK-257 is the only RCC cell line that has been derived from a patient with BHD and harbours a germline FLCN frameshift mutation (c.1285dupC) (predicted, in the absence of nonsense mediated mRNA decay, to lead to premature protein truncation (p.His429ProfsX27) (Yang et al., Cancer Genet Cytogenet, 2008 Jan. 15; 180(2):100-9). We are not aware of any sporadic RCC cell lines with homozygous FLCN inactivation. FTC-133 cells were purchased from ECACC (Salisbury, United Kingdom). These cells are a non-RCC cell line derived from human thyroid carcinoma. 786-0 cells were available from the author's lab (Clifford et al., Hum Mol Genet. 2001 May 1; 10(10):1029-38). 786-O is a kidney cancer cell line that harbours an inactivating VHL gene mutation (c.311delG p.G104fs*55). All cell lines were cultured in DMEM with supplement of 10% foetal bovine serum except for FTC-133 cells which were incubated in medium with DMEM and Hens (1:1).
(§2) The sensitivity of the cell lines to drug-induced cell growth inhibition was determined using the sulphorhodamine B assay (SRB) as described by Lu et al., Clin Cancer Res. 2001:7:2114-23. Briefly, adherent exponentially growing cells were seeded into 96-well plates at 3-5×10^3 cells/100 μl/well. […] The absorbance per well was measured at 570 nm on a Victor X3 Multilabel Plate Reader (PerkinElmor, Beaconsfield, United Kingdom).
GI50 values, defined as the concentration of compounds required to inhibit growth by 50%, were then calculated. The ratio of GI50 value from UOK257-FLCN^+ and UOK257-FLCN^− were calculated and used as an indicator for the sensitivity to FLCN mutant cells.

UOK257-FLCN^+ cells = assay: SRB growth inhibition assay in UOK257-FLCN^+ cells; format: cell-based, human; conditions: 72 hours continuous exposure, mean ± SE (n), read-out: GI50 nM in UOK-FLCN^+
Description: as §1
as §2, with “μl/well. After 20-24 h at 37° C., drugs were added at the appropriate drug concentrations to the wells (final DMSO conc. 1%) as indicated in the Results section.” for “μl/well.”
UOK-257 is the only RCC cell line that has been derived from a patient with BHD and harbours a germline FLCN frameshift mutation (c.1285dupC) (predicted, in the absence of nonsense mediated mRNA decay, to lead to premature protein truncation (p.His429ProfsX27) (Yang et al Cancer Genet Cytogenet, 2008 Jan. 15; 180(2):100-9). Both UOK257-FLCN^− and UOK257-FLCN^+ cells were examined for their sensitivities to growth inhibition induced by 15 compounds selected from the COMPARE analysis. Various concentrations of compounds were introduced into the cells 24 hrs after seeding, incubation was continued for 72 hours and growth inhibition was assessed using the suiphorhodamine B (SRB) assay. GI50 values, defined as the concentration of compounds required to inhibit growth by 50%, were then calculated. The ratio of GI50 value from UOK257-FLCN^+ and UOK257-FLCN^− were calculated and used as an indicator for the sensitivity to FLCN mutant cells.

[1] = system: 786-O cells with mutant VHL; assay: SRB growth inhibition in 786-O cells with mutant VHL; format: cell-based, human; conditions: SRB assay, 72 hours
Description: as §1
as §2, with “μl/well. After 20-24 h at 37° C., drugs were added at the appropriate drug concentrations to the wells (final DMSO conc. 1%) as indicated in the Results section.” for “μl/well.”
Cells were exposed continuously to various concentrations of drugs for 72 hours. GI50 values were determined as the concentrations at 50% growth inhibition from at least three experiments.

[2] = system: FTC-133 cells transfected with empty vector; assay: SRB growth inhibition in FTC-133 cells, empty vector; format: cell-based, human; conditions: SRB assay
Description: as §1, §2
(§3) A FLCN containing construct was introduced into parental FTC-133 cells and stably transfected cells were selected. SRB growth inhibition assay was carried out in cells transfected with empty vector and low FLCN and high FLCN expression.
as §3

[3] = system: VHL-deficient cells in ccRCC cell lines; conditions: Sutphin et al., Cancer Res 2007, cited from earlier work
[4] = system: caspase3/7 activity in UOK257-FLCN^− and UOK257-FLCN^+ cells; assay: Caspase-Glo 3/7 assay in UOK-257 cells with/without FLCN expression; format: cell-based, human; conditions: 48 hrs, all three concentrations
Experimental: The ability to induce caspase 3/7 activation after exposure to compounds was measured by Caspase-Glo 3/7 Assay (Promega, Southampton, United Kingdom) according to manufacturer's instruction. The cells were seeded and dosed as described in growth inhibition assay. At the end of incubation, 70 μl of medium was removed and 30 μl of assay reagent was added to the remaining medium. Additional one hour incubation with shaking was carried out at room temperature. The resultant luminescent light was measured in a Victor X3 Multilabel Plate Reader (PerkinElmer, Beaconsfield, United Kingdom). Cell viability after compound exposure was determined by CellTiter-Blue Cell Viability Assay (Promega, Southampton, the United Kingdom) according to manufacturer's instruction. At the end of drug treatment, 20 μl of reagent was added to the medium in 96 wells and the cells were incubated for additional 4 hours. The cell viability was measured by fluorescence with a 570 nm excitation and 590 nm emission set in a Victor X3 Multilabel Plate Reader (PerkinElmer, Beaconsfield, United Kingdom).
After 48 hrs incubation, with three concentration ranges for each drug, the capase3/7 activity was detected by amount of luminescence for each cell line. The ratio of caspase3/7 activity from UOK257-FLCN^− and UOK257-FLCN^+ were calculated and used as indicators for the ability of the individual compound to induce caspase3/7 activity to FLCN mutant cells.
These ratios were calculated and used as indicators for the sensitivity to mutant FLCN cells.

Row | Compound | GI50 (UOK257-FLCN^− cells; Homo sapiens) | GI50 Ratio of UOK-FLCN^+/UOK-FLCN^− (UOK257-FLCN^− cells) | GI50 (UOK257-FLCN^+ cells; Homo sapiens) | GI50 (UOK257-FLCN^− cells) | GI50 (UOK257-FLCN^+ cells) | also measured
1 | COc1cc([C@@H]2c3cc4c(cc3[C@@H](O[C@@H]3O[C@@H]5CO[C@@H](c6cccs6)O[C@H]5[C@H](O)[C@H]3O)[C@H]3COC(=O)[C@H]23)OCO4)cc(OC)c1O [VM-26 (teniposide), teniposide] | 773 ± 162 nM | 1.10 | 849 ± 358 nM |  |  | 
2 | CC(=O)O[C@@H]1[C@@H](O)[C@H](O[C@H]2[C@H](OC(=O)[C@H]3CC[C@@H]4[C@H](C3)O[C@@]3(C[C@H](OC(=O)/C=C/c5ccccc5)[C@H](C)CO3)[C@]43CO3)O[C@H](C)[C@@H](O)[C@@H]2OC(C)=O)O[C@H](C)[C@H]1O [phyllanthoside] | 199 ± 79 nM | 2.15 |  |  |  | fold difference in the GI50 values between FLCN-null and FLCN-wild type UOK257 cells (UOK257-FLCN^− cells): ~2 fold; GI50 (UOK257-FLCN^+ cells; Homo sapiens, 72 h): 427 ± 97 nM
3 | C(=N\NC1=NCCN1)/c1c2ccccc2c(/C=N/NC2=NCCN2)c2ccccc12 [bisantrene hydrochloride] | 1750 ± 288 nM | 0.77 | 1340 ± 602 nM |  |  | 
4 | CS[C@H]1SC[C@H]2C(=O)N(C)[C@@H](C(C)C)C(=O)OC[C@@H](NC(=O)c3cnc4ccccc4n3)C(=O)N[C@@H](C)C(=O)N(C)[C@@H]1C(=O)N(C)[C@@H](C(C)C)C(=O)OC[C@@H](NC(=O)c1cnc3ccccc3n1)C(=O)N[C@@H](C)C(=O)N2C [echinomycin] | 5.72 ± 0.22 nM | 0.71 | 4.03 ± 0.89 nM |  |  | 
5 | CC[C@]1(O)C[C@H]2CN(CCc3c([nH]c4ccccc34)[C@@](C(=O)OC)(c3cc4c(cc3OC)N(C=O)[C@H]3[C@@](O)(C(=O)OC)[C@H](OC(C)=O)[C@]5(CC)C=CCN6CC[C@]43[C@@H]65)C2)C1 [vincristine sulphate, vincristine sulfate] | 30.1 ± 10.3 nM | 1.88 | 56.4 ± 17.5 nM |  |  | fold difference in the GI50 values between FLCN-null and FLCN-wild type UOK257 cells (UOK257-FLCN^− cells): ~2 fold; change in growth inhibition for 786-0 cells with/without VHL expression (in words) [1]: no significant change; differential sensitivity in FTC-133 cells with different levels of FLCN expression (in words) [2]: no selective vincristine sensitivity
6 | CC[C@H](C)[C@H]1NC(=O)[C@@H](NC(=O)[C@@H](CC(C)C)N(C)C(=O)[C@@H]2CCCN2C(=O)C(C)O)[C@@H](C)OC(=O)[C@H](Cc2ccc(OC)cc2)N(C)C(=O)[C@@H]2CCCN2C(=O)[C@H](CC(C)C)NC(=O)[C@@H](C)C(=O)[C@H](C(C)C)OC(=O)C[C@@H]1O (stereo partly shown) [didemnin B] |  | 0.82 |  | 7.94 ± 1.66 nM | 6.53 ± 1.78 nM | 
7 | COc1cccc2c1C(=O)c1c(O)c3c(c(O)c1C2=O)C[C@@](O)(C(C)=O)C[C@@H]3O[C@H]1C[C@H](N(Cc2ccccc2)Cc2ccccc2)[C@@H](O)[C@H](C)O1 [N,N-dibenzyldaunomycin] |  | 0.22 |  | 5740 ± 918 nM | 1270 ± 549 nM | 
8 | CO[C@@H]1[C@H](O)C[C@@H](O[C@@H]2C[C@H](Oc3cc4cc5c(c(O)c4c(O)c3C)C(=O)[C@@H](O[C@H]3C[C@@H](O[C@H]4C[C@@H](O[C@H]6C[C@](C)(O)[C@@H](OC(C)=O)[C@H](C)O6)[C@H](O)[C@@H](C)O4)[C@H](O)[C@@H](C)O3)[C@H]([C@H](OC)C(=O)[C@@H](O)[C@@H](C)O)C5)O[C@H](C)[C@@H]2OC(C)=O)O[C@@H]1C [chromomycin A3] | 37.4 ± 6.9 nM | 0.88 |  |  |  | differential growth inhibitory activity in FLCN-deficient and FLCN-positive UOK-257 cell lines (in words) (UOK257-FLCN^− cells; listed as ChA3): did not find any differences; also recorded: does not demonstrate selective toxicity; also recorded: does not show differential growth inhibitory activity; differential toxicity to VHL-deficient relative to VHL-positive RCC cell lines (in words) ([3]; listed as ChA3): discriminate killing of VHL-deficient cells; differential toxicity to VHL-deficient relative to VHL-positive RCC cell lines (in words) ([3]; listed as Chromomycin A3 (ChA3)): differential toxicity; GI50 (UOK257-FLCN^+ cells; Homo sapiens, 72 h): 33 ± 5.7 nM
9 | COc1cccc2c1C(=O)c1c(O)c3c(c(O)c1C2=O)C[C@@](O)(C(=O)CO)C[C@@H]3O[C@H]1C[C@H](N2CCOCC2C#N)[C@H](O)[C@H](C)O1 (stereo partly shown) [cyanomorpholino-ADR] |  | 0.16 |  | 3.79 ± 0.39 nM | 0.62 ± 0.16 nM | fold difference in the GI50 values between UOK257-FLCN^+ and UOK257-FLCN^− cells (UOK257-FLCN^− cells; GI50 higher in FLCN^− cells (FLCN^− less sensitive)): 6 fold
10 | COc1cccc2c1C(=O)c1c(O)c3c(c(O)c1C2=O)C[C@@](O)(C(=O)CO)C[C@@H]3O[C@H]1C[C@H](N)[C@H](O)[C@H](C)O1 [doxorubicin (adriamycin), doxorubicin] | 423 ± 54 nM | 1.37 | 581 ± 109 nM |  |  | 
11 | COc1cccc2c1C(=O)c1c(O)c3c(c(O)c1C2=O)C[C@@](O)(C(=O)CO)C[C@@H]3O[C@H]1C[C@H](N2CCOCC2)[C@H](O)[C@H](C)O1 [morpholino-ADR, Morpholino-ADR] |  | 0.97 |  | 0.45 ± 0.03 nM | 0.44 ± 0.1 nM | 
12 | CO[C@@H]1C[C@](C)(O)Cc2cc3c(c(O)c21)C(=O)c1c(O)cc2c(c1C3=O)O[C@@H]1O[C@@]2(C)[C@H](O)[C@@H](N(C)C)[C@@H]1O [menogaril] | 588 ± 57 nM | 1.29 | 757 ± 117 nM |  |  | 
13 | CC(=O)O[C@H]1C(=O)[C@@]2(C)[C@H]([C@H](OC(=O)c3ccccc3)[C@]3(O)C[C@H](OC(=O)[C@H](O)[C@@H](NC(=O)c4ccccc4)c4ccccc4)C(C)=C1C3(C)C)[C@]1(OC(C)=O)CO[C@@H]1C[C@@H]2O [paclitaxel (taxol), paclitaxel] | 75.5 ± 9.2 nM | 6.81 | 514 ± 86 nM |  |  | fold difference in the GI50 values between FLCN-null and FLCN-wild type UOK257 cells (UOK257-FLCN^− cells): ~7 fold
14 | bruceantin |  | 0.64 |  | 68.4 ± 14.9 nM | 43.6 ± 5.1 nM | ratio of caspase3/7 activity from UOK257-FLCN^− and UOK257-FLCN^+ [4]: < 1
